# Where two headings read alike, the source gives them in different places. Marks after values point to notes of the source that are not given here.
# Tests used:
# [1] = Test of efficacy in piglets: production parameters, copper glycinate / formate / complex (Example 15); assay type: in vivo; settings: 21-42 days, 125 ppm of copper added to base diet
# Excerpt: (§2) Control of production parameters was effected at the end of the experiment, recording the live weight, the daily growth and the consumption of feed.
# [2] = Test in broilers: production parameters, copper methioninate / formate / complex (Example 13); assay type: in vivo, broilers of the Ross strain; settings: for MDC (mean daily consumption) / MDG (mean daily gain) / IC (index of conversion): 25 ppm of copper added to base diet; for LW 21 d (live weight): day 21, 25 ppm of copper added to base diet; for LW 42 d (live weight): day 42, 25 ppm of copper added to base diet
# Procedure: Four experimental treatments were used, comprising the same basic diet supplemented with different sources of copper:
# The dose of copper was calculated taking into account the copper content of the ingredients and the copper requirements in the case of treatments T-0 to T-3.
# (§1) Control of production parameters was effected at 21 and 42 days of age, recording the live weight and the consumption of feed per batch.
# [3] = broilers; for LW 21 d (live weight): day 21; for LW 42 d (live weight): day 42
# [4] = broilers
# Procedure: During the next 4 days, an investigation of the bioavailability of the copper was carried out. After fasting for 20 hours, the live weight per cage was recorded and the experimental feeds were supplied for 2 days, recording the consumption of feed.
# [5] = broilers; remark: listed apart in the source
# [6] = Test of efficacy in piglets: production parameters, zinc glycinate / formate / complex (Example 14); assay type: in vivo; settings: 21-50 days, 130 ppm of zinc added to base diet
# Excerpt: The experimental period was 29 days.
# [7] = Zinc concentration in the liver of piglets (Example 11); assay type: in vivo; settings: for Liver zinc / Ratio Zn in liver/Zn in diet: end of 21-day experiment, 220 ppm of zinc added to base diet
# Excerpt: At the end of the experiment, one male and one female were selected at random from each batch to take a specimen of liver tissue and determine the zinc content.
# [8] = piglets, 220 ppm of zinc added to base diet; for LW 28 d (live weight): day 28; for LW 42 d (live weight): day 42
# Procedure: 300 piglets were used (cross of Large White and Landrace), 50% males and 50% females, weaned at 21 days of age and housed in 30 pens with 10 animals in each (5 males and 5 females).
# Five experimental treatments were used, comprising the same basic diet, to which different sources of zinc are added:
# The zinc dose was calculated taking into account the zinc content of the ingredients of the feed and the maximum permitted dose (250 ppm of zinc in the finished feed) in the case of treatments T-0 to T-2, and the dose with promoter effect (2000 ppm) in the case of treatment T-3.
# The experimental period was 21 days.
# The experimental model was a design of random blocks, with 6 replications per treatment. Each replication comprised a batch of 10 animals.
# as §2
# [9] = Test in broilers: production parameters, zinc methioninate / formate / complex (Example 12); assay type: in vivo, broilers of the Ross strain; settings: for MDC (mean daily consumption) / MDG (mean daily gain) / IC (index of conversion): 50 ppm of zinc added to base diet; for LW 21 d (live weight): day 21, 50 ppm of zinc added to base diet; for LW 42 d (live weight): day 42, 50 ppm of zinc added to base diet
# Excerpt: Four experimental treatments were used, comprising the same basic diet supplemented with different sources of zinc:
# as §1
# [10] = broilers; remark: listed apart in the source
# [11] = 0-21 days, 20 ppm of copper added to base diet
# [12] = 0-21 days, 150 ppm of copper added to base diet
# [13] = 0-42 days, 20 ppm of copper added to base diet
# [14] = 0-42 days, 150 ppm of copper added to base diet
# [15] = 21-42 days, 20 ppm of copper added to base diet
# [16] = 21-42 days, 150 ppm of copper added to base diet
# [17] = 20 ppm of copper added to base diet
# [18] = 150 ppm of copper added to base diet
# [19] = 43 to 46 days of age, 20 ppm of copper added to base diet
# [20] = 43 to 46 days of age, 150 ppm of copper added to base diet
# [21] = 43 to 46 days of age, 25 ppm of copper added to base diet
# [22] = 43 to 46 days of age, 50 ppm of zinc added to base diet
compound,measurement,setting,value
NCC(=O)[O-].NCC(=O)[O-].[Cu+2] [copper glycinate],GLW 21-42 d (gain in live weight),[1],7.25 b kg
same,IC (index of conversion),[1],1.91 b
same,MDC (mean daily consumption),[1],660.5 g/day
same,MDG (mean daily gain),[1],345.0 b g
O=S(=O)([O-])[O-].[Cu+2] [copper sulfate],MDC (mean daily consumption),[2]; 0-21 days,45.3 g/day
same,MDG (mean daily gain),[2]; 0-21 days,31.6 a g
same,MDC (mean daily consumption),[2]; 0-42 days,102.7 g/day
same,MDG (mean daily gain),[2]; 0-42 days,51.6 a g
same,MDC (mean daily consumption),[2]; 21-42 days,160.1 g/day
same,MDG (mean daily gain),[2]; 21-42 days,71.6 a g
same,LW 21 d (live weight),[2],695 a g
same,LW 42 d (live weight),[2],2200 a g
same,GLW 21-42 d (gain in live weight),[1],6.5 a kg
same,MDC (mean daily consumption),[1],650.5 g/day
same,MDG (mean daily gain),[1],309.5 a g
same,MDC (mean daily consumption),[3]; [11],48.9 g/day
same,MDG (mean daily gain),[3]; [11],34.2 a g
same,MDC (mean daily consumption),[3]; [12],49.7 g/day
same,MDG (mean daily gain),[3]; [12],35.9 b g
same,MDC (mean daily consumption),[3]; [13],98.2 g/day
same,MDG (mean daily gain),[3]; [13],50.6 a g
same,MDC (mean daily consumption),[3]; [14],99.5 g/day
same,MDG (mean daily gain),[3]; [14],55.2 b g
same,MDC (mean daily consumption),[3]; [15],149.3 g/day
same,MDG (mean daily gain),[3]; [15],69.2 a g
same,MDC (mean daily consumption),[3]; [16],154.2 g/day
same,MDG (mean daily gain),[3]; [16],76.7 b g
same,LW 21 d (live weight),[3]; [17],716 a g
same,LW 21 d (live weight),[3]; [18],756 b g
same,LW 42 d (live weight),[3]; [17],2172 a g
same,LW 42 d (live weight),[3]; [18],2362 b g
same,Copper excreted,[4]; [19],4.08^a mg
same,Copper ingested,[4]; [19],7.3^a mg
same,Copper excreted,[4]; [20],397.3^b mg
same,Copper ingested,[4]; [20],652.4^b mg
same,Copper excreted,[5]; [21],20.4^a mg
same,Copper ingested,[5]; [21],67.98^a mg
NCC(=O)[O-].NCC(=O)[O-].[Zn+2] [zinc glycinate],GLW 21-50 d (gain in live weight),[6],12.75 b kg
same,IC (index of conversion),[6],1.68 b
same,MDC (mean daily consumption),[6],741.3 g/day
same,MDG (mean daily gain),[6],439.6 b g
[O]=[Zn] [zinc oxide],liver zinc concentration (in words),[7]; dose of 220 ppm,lowest
same,Liver zinc,[7],47.63a μg/g
same,Ratio Zn in liver/Zn in diet,[7],19.8ab
same,GLW 21-50 d (gain in live weight),[6],11.40 a kg
same,IC (index of conversion),[6],2.02 a
same,MDC (mean daily consumption),[6],795.3 g/day
same,MDG (mean daily gain),[6],393.1 a g
same,IC (index of conversion),[8]; 21-28 days,1.32 a
same,MDC (mean daily consumption),[8]; 21-28 days,321.7 g/day
same,MDG (mean daily gain),[8]; 21-28 days,244.5 A g
same,IC (index of conversion),[8]; 21-42 days,1.67 a
same,MDC (mean daily consumption),[8]; 21-42 days,795.3 g/day
same,MDG (mean daily gain),[8]; 21-42 days,475.3 a g
same,LW 28 d (live weight),[8],8.41 A kg
same,LW 42 d (live weight),[8],13.11 a kg
O=S(=O)([O-])[O-].[Zn+2] [zinc sulfate],MDC (mean daily consumption),[9]; 0-21 days,47.3 g/day
same,MDG (mean daily gain),[9]; 0-21 days,33.6 a g
same,MDC (mean daily consumption),[9]; 0-42 days,101.7 g/day
same,MDG (mean daily gain),[9]; 0-42 days,53.5 a g
same,MDC (mean daily consumption),[9]; 21-42 days,156.3 g/day
same,MDG (mean daily gain),[9]; 21-42 days,73.6 a g
same,LW 21 d (live weight),[9],705 a g
same,LW 42 d (live weight),[9],2250 a g
same,Zinc excreted,[10]; [22],8.34^a mg
same,Zinc ingested,[10]; [22],12.4^a mg
Copper butyrate,IC (index of conversion),[3]; [11],1.35 b
same,MDC (mean daily consumption),[3]; [11],48.9 g/day
same,MDG (mean daily gain),[3]; [11],36.2 b g
same,IC (index of conversion),[3]; [13],1.76 b
same,MDC (mean daily consumption),[3]; [13],97.2 g/day
same,MDG (mean daily gain),[3]; [13],55.1 b g
same,IC (index of conversion),[3]; [15],1.94 b
same,MDC (mean daily consumption),[3]; [15],147.2 g/day
same,MDG (mean daily gain),[3]; [15],75.9 b g
same,LW 21 d (live weight),[3]; [17],763 b g
same,LW 42 d (live weight),[3]; [17],2358 b g
same,Copper excreted,[4]; [19],2.99^a mg
same,Copper ingested,[4]; [19],7.3^a mg
same,copper bioavailability (in words),[4]; 20 ppm of copper,highest bioavailability
same,Bioavailability,"[4]; copper, 43 to 46 days of age, 20 ppm of copper added to base diet",59.09^b %
Zinc butyrate,ratio of zinc in the liver to zinc in the diet (in words),[7]; 220 ppm of zinc,highest ratio
same,Liver zinc,[7],56.3a μg/g
same,Ratio Zn in liver/Zn in diet,[7],22.3bc
same,IC (index of conversion),[8]; 21-28 days,1.09 b
same,MDC (mean daily consumption),[8]; 21-28 days,286.3 g/day
same,MDG (mean daily gain),[8]; 21-28 days,262.9 ab g
same,IC (index of conversion),[8]; 21-42 days,1.45 b
same,MDC (mean daily consumption),[8]; 21-42 days,741.3 g/day
same,MDG (mean daily gain),[8]; 21-42 days,509.6 b g
same,LW 28 d (live weight),[8],8.99 B kg
same,LW 42 d (live weight),[8],14.15 b kg
copper methioninate,IC (index of conversion),[2]; 0-21 days,1.36 b
same,MDC (mean daily consumption),[2]; 0-21 days,47.1 g/day
same,MDG (mean daily gain),[2]; 0-21 days,34.7 b g
same,IC (index of conversion),[2]; 0-42 days,1.86 b
same,MDC (mean daily consumption),[2]; 0-42 days,100.5 g/day
same,MDG (mean daily gain),[2]; 0-42 days,54.0 b g
same,IC (index of conversion),[2]; 21-42 days,2.08 b
same,MDC (mean daily consumption),[2]; 21-42 days,154.0 g/day
same,MDG (mean daily gain),[2]; 21-42 days,73.8 b g
same,effect on production parameters (in words),"[2]; 25 ppm of copper, control T-0 = copper sulfate",same effect
same,LW 21 d (live weight),[2],750 b g
same,LW 42 d (live weight),[2],2300 b g
same,Copper excreted,[5]; [21],29.5^b mg
same,Copper ingested,[5]; [21],69.3^a mg
same,copper bioavailability (in words),[5]; 25 ppm of copper,highest bioavailability
same,Bioavailability,"[5]; copper, 43 to 46 days of age, 25 ppm of copper added to base diet",42.6^b %
zinc methioninate,IC (index of conversion),[9]; 0-21 days,1.35 b
same,MDC (mean daily consumption),[9]; 0-21 days,48.1 g/day
same,MDG (mean daily gain),[9]; 0-21 days,35.7 b g
same,IC (index of conversion),[9]; 0-42 days,1.82 b
same,MDC (mean daily consumption),[9]; 0-42 days,101.7 g/day
same,MDG (mean daily gain),[9]; 0-42 days,55.7 b g
same,IC (index of conversion),[9]; 21-42 days,2.05 b
same,MDC (mean daily consumption),[9]; 21-42 days,155.2 g/day
same,MDG (mean daily gain),[9]; 21-42 days,75.7 b g
same,effect on production parameters (in words),"[9]; 50 ppm of zinc, control T-0 = zinc sulfate",same effect
same,LW 21 d (live weight),[9],750 b g
same,LW 42 d (live weight),[9],2340 b g
same,Zinc excreted,[10]; [22],7.35^b mg
same,Zinc ingested,[10]; [22],12.6^a mg
same,zinc bioavailability (in words),[10]; 50 ppm of zinc,highest bioavailability
same,Bioavailability,"[10]; zinc, 43 to 46 days of age, 50 ppm of zinc added to base diet",42.6^b %

# — patent publication US20090131702A1, “METHOD FOR THE PRODUCTION OF METAL CARBOXYLATES AND THE METAL AMINOATE OR METAL HYDROXY ANALOGUE METHIONATE DERIVATIVES THEREOF, AND USE OF SAME AS GROWTH PROMOTERS IN ANIMAL FEED” (NOREL, S.A., priority 2003, published 2009)
